Publication PMC4503959, “Dopamine modulates hemocyte phagocytosis via a D1-like receptor in the rice stem borer, Chilo suppressalis” (Scientific Reports, 2015)

Biological target: T1, CsDOP1 (Chilo suppressalis, UniProt A0A0K0QVU3)
T1 construct: gene DOP1; receptor in pcDNA3, stably expressed in HEK 293 cells; GPCR coupled to Gs (cAMP increase)
T1 sequence (A0A0K0QVU3 1-409): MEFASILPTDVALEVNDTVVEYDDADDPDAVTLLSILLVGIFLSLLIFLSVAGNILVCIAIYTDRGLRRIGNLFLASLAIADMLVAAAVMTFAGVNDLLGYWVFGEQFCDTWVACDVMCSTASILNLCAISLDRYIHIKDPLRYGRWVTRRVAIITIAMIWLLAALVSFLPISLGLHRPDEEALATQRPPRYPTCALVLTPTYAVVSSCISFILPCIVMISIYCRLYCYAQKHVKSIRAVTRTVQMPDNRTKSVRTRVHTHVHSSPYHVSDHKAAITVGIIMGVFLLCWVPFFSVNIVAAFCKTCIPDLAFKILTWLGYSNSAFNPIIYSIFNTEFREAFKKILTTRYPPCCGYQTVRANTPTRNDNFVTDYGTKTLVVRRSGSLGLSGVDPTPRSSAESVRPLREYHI
Test: intracellular cAMP accumulation
Type: cell-based

NCCc1ccc(O)c(O)c1 [dopamine]
EC50: 1.93 nM
